# From patent US20070099828A1, “BIOMARKERS FOR THE EFFICACY OF CALCITONIN AND PARATHYROID HORMONE TREATMENT” (priority 2003, published 2007)
# “And” between values parts separate entries of the source, which are not always exact repeats. Equal entries are not always repeated.
# Columns and labels:
# Haematology = type: in vivo, cynomolgus monkeys (Macaca fascicularis); details: males, d −6 (before dosing)
# Description: (§1) Blood sampling. […] Blood samples were taken from a peripheral vein.
# [1] = Hormone determinations in serum; type: in vivo, cynomolgus monkeys (Macaca fascicularis); details: males
# Description: as §1
# [2] = tested on: liver, kidney, pituitary, muscle, bone, duodenum, spleen and trachea; set-up: species or system cynomolgus monkeys (Macaca fascicularis); details: cynomolgus monkey, in vivo
# Experimental: Tissue sampling. Animals were killed by deep anaesthesia induced by intravenous injection of Pentothal®, followed by exsanguinations. All relevant tissues were sampled for histopathology and gene expression profiling. The following tissue samples were processed for analysis: liver, kidney, pituitary, muscle, bone, duodenum, spleen and trachea. Samples for histopathology were fixed in phosphate-buffered 10% formalin. Bone demineralization was performed with 10% formic acid. Tissue samples were embedded in Paraplast® and sectioned at 4 microns, for staining with haematoxylin and eosin. Samples for gene expression profiling were quickly frozen in liquid nitrogen immediately after excision, stored on dry ice and subsequently in a deep-freezer at approximately −80° C. until further use. All selected tissues for gene expression profiling were examined histopathologically.
# [3] = urine, females, day −8 (pre-dose)
smiles,measurement,setting,value
CC(C)C[C@H](NC(=O)[C@H](CCCCN)NC(=O)CNC(=O)[C@H](CC(C)C)NC(=O)[C@@H](NC(=O)[C@@H]1CSSC[C@H](N)C(=O)N[C@@H](CO)C(=O)N[C@@H](CC(N)=O)C(=O)N[C@@H](CC(C)C)C(=O)N[C@@H](CO)C(=O)N[C@@H]([C@@H](C)O)C(=O)N1)C(C)C)C(=O)N[C@@H](CO)C(=O)N[C@@H](CCC(N)=O)C(=O)N[C@@H](CCC(=O)O)C(=O)N[C@@H](CC(C)C)C(=O)N[C@@H](Cc1c[nH]cn1)C(=O)N[C@@H](CCCCN)C(=O)N[C@@H](CC(C)C)C(=O)N[C@@H](CCC(N)=O)C(=O)N[C@H](C(=O)N[C@@H](Cc1ccc(O)cc1)C(=O)N1CCC[C@H]1C(=O)N[C@@H](CCCNC(=N)N)C(=O)N[C@H](C(=O)N[C@@H](CC(N)=O)C(=O)N[C@H](C(=O)NCC(=O)N[C@@H](CO)C(=O)NCC(=O)N[C@H](C(=O)N1CCC[C@H]1C(N)=O)[C@@H](C)O)[C@@H](C)O)[C@@H](C)O)[C@@H](C)O [Salmon Calcitonin],PCV,Haematology,0.40 l/l and 0.43 l/l
same,PLAT,Haematology,351 G/l and 247 G/l
same,RBC,Haematology,6.3 T/l and 6.9 T/l
same,WBC,Haematology,7.7 G/l and 11.5 G/l
same,ACTH,[1]; day 7,87 pg/mL and 78 pg/mL
same,ALDOST,[1]; day 7,1058 pg/mL and 987 pg/mL
same,C-PEPTI,[1]; day 7,1.70 ng/mL and 1.20 ng/mL
same,CORTISOL,[1]; day 7,979 nmol/L and 1523 nmol/L
same,CT,[1]; day 7,4.0 pg/mL and 2.5 pg/mL
same,GASTRIN,[1]; day 7,83 pg/mL and 128 pg/mL
same,GLUCAG,[1]; day 7,247 pg/mL and 218 pg/mL
same,INSULIN,[1]; day 7,14.0 mU/l and 10.0 mU/l
same,IPH,[1]; day 7,75 pg/mL and 62 pg/mL
same,S.MED,[1]; day 7,268 ng/mL and 307 ng/mL
same,T3,[1]; day 7,2.35 nmol/L and 1.65 nmol/L
same,T4,[1]; day 7,64 nmol/L and 79 nmol/L
same,VD25-H,[1]; day 7,50 nmol/L and 44 nmol/L
same,ACTH,[1]; day 13,87 pg/mL and 73 pg/mL
same,ALDOST,[1]; day 13,819 pg/mL and 977 pg/mL
same,C-PEPTI,[1]; day 13,1.80 ng/mL and 2.30 ng/mL
same,CORTISOL,[1]; day 13,1611 nmol/L and 1709 nmol/L
same,G.H.,[1]; day 13,16.2 ng/mL and 15.7 ng/mL
same,GASTRIN,[1]; day 13,88 pg/mL and 136 pg/mL
same,GLUCAG,[1]; day 13,428 pg/mL and 503 pg/mL
same,INSULIN,[1]; day 13,17.0 mU/l and 22.0 mU/l
same,IPH,[1]; day 13,78 pg/mL and 71 pg/mL
same,PROLACT,[1]; day 13,4.6 ng/mL and 6.6 ng/mL
same,S.MED,[1]; day 13,332 ng/mL and 384 ng/mL
same,T3,[1]; day 13,2.51 nmol/L and 1.90 nmol/L
same,T4,[1]; day 13,47 nmol/L and 65 nmol/L
same,VD25-H,[1]; day 13,49 nmol/L and 45 nmol/L
same,CORTISOL,[1]; day −6 (pre-dose),2316 nmol/L and 1578 nmol/L
same,CT,[1]; day −6 (pre-dose),6.7 pg/mL and 5.1 pg/mL
same,G.H.,[1]; day −6 (pre-dose),11.5 ng/mL and 14.6 ng/mL
same,GLUCAG,[1]; day −6 (pre-dose),905 pg/mL and 869 pg/mL
same,T3,[1]; day −6 (pre-dose),1.06 nmol/L and 1.48 nmol/L
same,T4,[1]; day −6 (pre-dose),53 nmol/L and 62 nmol/L
same,TESTO,[1]; day −6 (pre-dose),8.5 nmol/L and 9.5 nmol/L
same,VD25-H,[1]; day −6 (pre-dose),63 nmol/L and 62 nmol/L
same,ACTH,[1]; day −6 relative to start of dosing (pre-dose),98 pg/mL and 115 pg/mL
same,inflammatory and regenerative changes in the kidneys,[2],slightly higher incidence
same,CREAT (urine),"Urinary analysis; males, day 13",4620 µmol/L and 4400 µmol/L
same,Ca2+ (urine),"Urinary analysis; males, day 13",18.25 mmol/L and 23.40 mmol/L
same,Cl− (urine),"Urinary analysis; males, day 13",55 mmol/L and 68 mmol/L
same,I.PHOS (urine),"Urinary analysis; males, day 13",2.50 mmol/L and 3.00 mmol/L
same,K+ (urine),"Urinary analysis; males, day 13",78 mmol/L and 76 mmol/L
same,Mg2+ (urine),"Urinary analysis; males, day 13",7.05 mmol/L and 9.80 mmol/L
same,Na+ (urine),"Urinary analysis; males, day 13",14 mmol/L and 15 mmol/L
same,VOLUME (urine),"Urinary analysis; males, day 13",68 mL and 54 mL
same,I.PHOS (urine),"Urinary analysis; males, day −6 (before dosing)",4.35 mmol/L and 5.33 mmol/L
same,LDH (urine),"Urinary analysis; males, day −6 (before dosing)",9.0 IU/L and 13.0 IU/L
same,NAG (urine),"Urinary analysis; males, day −6 (before dosing)",2.7 IU/l and 4.2 IU/l
same,VOLUME (urine),"Urinary analysis; males, day −6 (before dosing)",62 mL and 37 mL
same,CREAT,"Urinary analysis; urine, females, day 13",4800 µmol/L and 4200 µmol/L
same,Ca2+,"Urinary analysis; urine, females, day 13",17.55 mmol/L and 12.70 mmol/L
same,Cl−,"Urinary analysis; urine, females, day 13",63 mmol/L and 65 mmol/L
same,I.PHOS,"Urinary analysis; urine, females, day 13",5.1 mmol/L and 5.8 mmol/L
same,K+,"Urinary analysis; urine, females, day 13",53 mmol/L and 57 mmol/L
same,Mg2+,"Urinary analysis; urine, females, day 13",5.40 mmol/L and 4.85 mmol/L
same,NAG,"Urinary analysis; urine, females, day 13",2.8 IU/l and 2.7 IU/l
same,Na+,"Urinary analysis; urine, females, day 13",40 mmol/L and 32 mmol/L
same,VOLUME,"Urinary analysis; urine, females, day 13 of dosing",67 mL and 49 mL
same,CREAT,"Urinary analysis; urine, females, day −7 (pre-dose)",6920 µmol/L and 13380 µmol/L
same,CREAT,Urinary analysis; [3],10780 µmol/L and 11260 µmol/L
same,Ca2+,Urinary analysis; [3],3.00 mmol/L and 3.50 mmol/L
same,K+,Urinary analysis; [3],104 mmol/L and 172 mmol/L
same,Mg2+,Urinary analysis; [3],3.35 mmol/L and 3.80 mmol/L
same,Na+,Urinary analysis; [3],98 mmol/L and 156 mmol/L
